Values of other authors in PMC4621754, “Parasitic diarrheal disease: drug development and targets” (Frontiers in Microbiology, 2015).
pIC50: −log10 of the molar value. Like-named read-outs stand apart in the source and are kept apart here.

What was measured:
E. histolytica PPi-PFK = test system: E. histolytica PPi-PFK; parameters: method as in Reeves et al., 1974, 1976; details: ref Reeves et al., 1974, 1976
[1] = test system: methionine aminopeptidase type 2(MetAP2); parameters: method as in Molina et al., 2002; details: E. cuniculi; non-competitive, irreversible; ref Molina et al., 2002
[2] = test system: Encephalitozoon spp. and E. bieneusi; parameters: method as in Bacchi and Weiss, 2004; details: in vitro; ref Bacchi and Weiss, 2004
human cells = details: ref Bendesky et al., 2002
B. hominis [3] = test system: B. hominis; parameters: method as in Nasirudeen et al., 2004; details: ref Nasirudeen et al., 2004
I. belli = details: for cure of I. belli induced diarrhea: ref Trier et al., 1974, Syrkis et al., 1975, Butler and De Boer, 1981, Weiss et al., 1988
E. intestinalis [4] = test system: E. intestinalis; parameters: method as in Menotti et al., 2005; Pozio and Morales, 2005; details: tissue culture, ref Menotti et al., 2005, Pozio and Morales
microsporidia = test system: microsporidia; parameters: method as in Didier et al., 2005; details: ref Didier et al., 2005
tubulin = test system: tubulin; parameters: method as in Valdez et al., 2002; details: ref Valdez et al., 2002
E. intestinalis [5] = test system: E. intestinalis; parameters: method as in Didier et al., 2006; details: in vitro; ref Didier et al., 2006
B. hominis [6] = test system: B. hominis; parameters: method as in Van Hellemond et al., 2013; details: in comparison to metronidazole; ref Van Hellemond et al., 2013
cryptosporidiosis = test system: cryptosporidiosis; parameters: method as in Mead, 2002; Gargala, 2008; details: ref Mead, 2002, Gargala, 2008
[7] = parameters: method as in Diaz et al., 2003; details: intestinal infection caused by C. cayetanensis; ref Diaz et al., 2003
[8] = test system: Acyl-coenzyme-A synthetases; parameters: method as in Guo et al., 2014; details: cryptosporidial infection in mice; ref Guo et al., 2014
E. intestinalis [9] = details: ref John et al., 2005
giardiasis = test system: giardiasis; parameters: method as in Galkin et al., 2014; details: mice; ref Galkin et al., 2014
Carbamate kinase = test system: Carbamate kinase; parameters: method as in Galkin et al., 2014; details: ref Galkin et al., 2014

O=P(O)(O)C(O)(Cn1ccnc1)P(=O)(O)O [CGP42446A]
inhibition of PFK in E. histolytica (E. histolytica PPi-PFK): good inhibitors

CO[C@@H]1[C@H](OC(=O)/C=C/C=C/C=C/C=C/C(=O)O)CC[C@]2(CO2)[C@H]1[C@@]1(C)O[C@@H]1CC=C(C)C [Fumagillin]
MetAP2 inhibition [1]: potent inhibitor
activity against Encephalitozoon spp. and E. bieneusi [2]: potent

Cc1ncc([N+](=O)[O-])n1CCO [Metronidazole]
genotoxicity (human cells): genotoxic
programmed cell death (B. hominis [3]): induces programmed cell death
cure of I. belli induced diarrhea (I. belli): cure the I. belli induced diarrhea but to lesser extent

CC(C)(C)NC(=O)[C@@H]1CN(Cc2cccnc2)CCN1C[C@@H](O)C[C@@H](Cc1ccccc1)C(=O)N[C@H]1c2ccccc2C[C@H]1O [indinavir]
growth of E. intestinalis (E. intestinalis [4]): inhibited the growth

CC1COc2c(N3CCN(C)CC3)c(F)cc3c(=O)c(C(=O)O)cn1c23 (stereo not shown) [ofloxacin]
antimicrosporidial activity (microsporidia): more than gatifloxacin (6), lomefloxacin (7), moxifloxacin (8), and nalidixic acid (9)

CCOC(=O)C(=O)Nc1ncc([N+](=O)[O-])s1 [Compound 69, ethyl [(5-nitro-1,3-thiazol-2-yl)amino](oxo)acetate]
pIC50 (G. intestinalis; ref Nava-Zuazo et al., 2014): 5.19

CCn1cc(C(=O)O)c(=O)c2cc(F)c(N3CCNCC3)cc21 [norfloxacin]
antimicrosporidial activity (microsporidia): more than gatifloxacin (6), lomefloxacin (7), moxifloxacin (8), and nalidixic acid (9)

S=c1[nH]c2ccc(Cl)cc2[nH]1 [Compound 36, 5(6)-chloro-1H-benzimidazole-2-(3H)-thione]
tubulin polymerization (tubulin): inhibits tubulin polymerization
pIC50 (G. lamblia; in vitro, ref Valdez et al., 2002): 8.30
pIC50 (E. histolytica; ref Valdez et al., 2002): 8.30

COC(=O)Nc1ncc([N+](=O)[O-])s1 [Compound 68, methyl 5-nitro-1,3-thiazol-2-ylcarbamate]
pIC50 (G. intestinalis; ref Nava-Zuazo et al., 2014): 8.00

CO[C@@H]1C(=O)CC[C@]2(CO2)[C@@]1(O)[C@@]1(C)O[C@@H]1CC=C(C)C [ovalicin]
inhibition of E. intestinalis replication (E. intestinalis [5]): more than 70%

NC[C@@H]1O[C@H](O[C@H]2[C@@H](O)[C@H](O[C@@H]3[C@@H](O)[C@H](N)C[C@H](N)[C@H]3O[C@H]3O[C@H](CO)[C@@H](O)[C@H](O)[C@H]3N)O[C@@H]2CO)[C@H](N)[C@@H](O)[C@@H]1O [Paramomycin, paromomycin]
performance against B. hominis infections (B. hominis [6]): superior performance in comparison to metronidazole

CO[C@@H]1[C@H](OC(=O)NC(=O)CCl)CC[C@]2(CO2)[C@H]1[C@@]1(C)O[C@@H]1CC=C(C)C [TNP-470]
inhibition of E. intestinalis replication (E. intestinalis [5]): more than 70%

CCN(CC)CCCC(C)Nc1c2ccc(Cl)cc2nc2ccc(OC)cc12 (stereo not shown) [quinacrine]
cure of I. belli induced diarrhea (I. belli): cure the I. belli induced diarrhea but to lesser extent

sirimamycin
efficacy in I. belli intestinal infection (I. belli; when pyrimethamine-sulfadoxine fails, AIDS patients, ref Ferguson et al., 1980): effective

Nc1ccc(S(=O)(=O)Nc2ncccn2)cc1 [sulfadiazine]
cure of diarrheal disease caused by I. belli (I. belli; ref Ferguson et al., 1980, Ebrahimzadeh and Bottone, 1996): cure the diarrheal disease

CC(=O)Oc1ccccc1C(=O)Nc1ncc([N+](=O)[O-])s1 [nitazoxanide]
efficacy in cryptosporidiosis (cryptosporidiosis; immunocompetent patients): effective
efficacy in cryptosporidiosis (cryptosporidiosis; immunocompromised patients): ineffective
side effects [7]: no severe side effects

CCC/C=C/C/C=C/C=C/C=N/NN=O [triacsin C]
inhibition of acyl-coenzyme-A synthetases [8]: inhibited

O=[O+][O-] [ozone]
killing of E. intestinalis (E. intestinalis [9]): kills

CC(=O)Oc1ccccc1C(=O)Nc1nc2ccc([N+](=O)[O-])cc2s1 [Compound 39, 2-{[(6-Nitro-1,3-benzothiazol-2-yl)amino]carbonyl}phenyl acetate]
pIC50 (G. intestinalis; in vitro, ref Navarrete-Vazquez et al., 2011): 5.45
pIC50 (E. histolytica; ref Navarrete-Vazquez et al., 2011): 6.53

CCN(CC)C(=S)SSC(=S)N(CC)CC [disulfiram]
effect on trophozoites (G. lamblia; ref Galkin et al., 2014): kills the trophozoites
cure of giardiasis (giardiasis): cure of giardiasis in mice
carbamate kinase inhibition (Carbamate kinase): inhibits this enzyme

CC(C)c1nc(CN(C)C(=O)N[C@H](C(=O)N[C@@H](Cc2ccccc2)C[C@H](O)[C@H](Cc2ccccc2)NC(=O)OCc2cncs2)C(C)C)cs1 [Ritonavir]
growth of E. intestinalis (E. intestinalis [4]): inhibited the growth
